Data published in patent publication US11332438B2, “Creatine prodrugs, compositions and methods of use thereof” (Ultragenyx Pharmaceutical Inc., priority 2017, dated 2022).
Read-outs that look alike come from different tables or passages of the source.

Legend:
[1] = rcm bond, DCM, 50.0 °C
[2] = rcm bond, Grubbs II, 50.0 °C
[3] = Chemical stability in phosphate buffered saline (PBS); format: physicochemical; conditions: Table 2A, 50 μM prodrug
Summary of the method: (§1)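 Incubations used 50 μM compound at 37 °C in phosphate buffered saline, fasted simulated intestinal fluid without pancreatin, or fasted simulated gastric fluid without pepsin.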

[4] = Chemical stability in simulated gastric fluid (SGF) without pepsin; format: physicochemical; conditions: Table 2A, 50 μM prodrug
Summary of the method: as §1

[5] = In vivo IV dosing in CrT KO mice: prodrug, d3-Cr and d3-Crn in brain (Table 5)
Method: A creatine prodrug is administered as an intravenous bolus injection to groups of three to six adult male CD1 mice at an appropriate creatine prodrug dose equivalent per kg body weight. Animals are conscious at the time of the experiment. Blood samples (0.3 mL) are obtained via a jugular vein cannula at intervals over 8 hours following IV dosing. Blood is processed into plasma, then the plasmais immediately frozen at −80° C. until analyzed by LC-MS/MS. Samples may also be taken form the CSF or other appropriate biological fluid. Brains were collected and flash frozen immediately in liquid nitrogen. Brains were homogenized in 100 mM KPI buffer with a cocktail of anti-proteases on the same day as the sample preparation required for LC-MS/MS analysis.
Several prodrugs with either free COOH group and ester linkage and macrocycles were selected for IV dosing in animal study to assess PK and d3-Cr release in brain in vivo. Prodrugs were IV dosed in CrT KO mice at 10, 15, or 25 mg/kg in animal studies. Mouse brain homogenates (MBH) were prepared from brains collected from mice after dosing. Levels of prodrug, d3-Cr and d3-Crn were quantified in brain and expressed in brain concentration (for macrocycle prodrugs) or AUC (for linear prodrugs) over time. Very few prodrugs were detected in MBH.

[6] = Chemical stability in simulated intestinal fluid (SIF) without pancreatin; format: physicochemical; conditions: Table 2A, 50 μM prodrug
Method: Chemical stability of creatine prodrugs in phosphate buffered saline (PBS), simulated intestinal fluid (SIF) without pancreatin, simulated gastric fluid (SGF) without pepsin were determined by LC-UV, LC-CAD, LC-UV-CAD or LC-MS/MS as appropriate. Creatine prodrugs of the present disclosure (50 μM) were incubated at 37° C. according to described protocols and prodrug levels were compared between t=0, t=15, t=60, and t=120 mins by peak area ratio to determine the percentage remained at t=120 mins (2 h).
Protocol for PBS, SIF and SGF stability for screening:
Prodrugs (50 μM) were incubated in PBS, FaSSIF (Biorelevant) or FaSSGF (Biorelevant) at 37° C.

[7] = Liver microsome stability, human; format: in vitro ADME; conditions: liver microsomes, pH 7.4, Table 2A, read-out: Microsome Stability Human t1/2
Summary of the method: (§2)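 Test compound incubated with mouse or human liver microsomes and NADPH in 0.1 M potassium phosphate, 1.0 mM EDTA, pH 7.4, with a 60-min no-NADPH control. Samples quenched with ACN containing internal standard at 0, 5, 10, 20, 30 and 60 min, then analysed by LC/MS.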

[8] = Plasma stability, human plasma; format: in vitro ADME; conditions: Table 2A, 37 °C, read-out: Plasma Stability Human t1/2
Summary of the method: (§3)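 Test article, 1 µM final (from 10% DMSO/water), incubated at 37 °C in plasma adjusted to pH 7.4 if needed; samples at 0, 2, 5, 15 and 30 min quenched with ice-cold 80% acetonitrile. Remaining compound by LC-MS/MS; half-life in minutes calculated.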

[9] = Plasma stability, mouse plasma; format: in vitro ADME; conditions: Table 2A, 37 °C, read-out: Plasma Stability Mouse t1/2
Summary of the method: as §3

[10] = Liver microsome stability, mouse; format: in vitro ADME; conditions: liver microsomes, pH 7.4, Table 2A, read-out: Microsome Stability Mouse t1/2
Summary of the method: as §2

Compound: CC1CC=CCCCCCCCC(=O)NC(=NC(=O)OC(C)(C)C)N(C)CC(=O)O1 (stereo not shown)
- ring closure, isolated yield ([1]; from [2H]C([2H])([2H])N(CC(=O)OC(C)CC=C)C(=NC(=O)OC(C)(C)C)NC(=O)CCCCCCCC=C, 18-membered ring, Grubbs II, 2.0 h, 2 steps): 53%

Compound: CN1CC(=O)OC(C)(C)CC=CCCCCCCCC(=O)NC1=NC(=O)OCc1ccccc1
- ring closure, isolated yield ([1]; from [2H]C([2H])([2H])N(CC(=O)OC(C)(C)CC=C)/C(=N\C(=O)OCc1ccccc1)NC(=O)CCCCCCCC=C, 18-membered ring, Grubbs II (10 mol%), 2.0 mM, 2.0 h): 79%

Compound: CN1CC(=O)OC(C)(C)CCCC=CCCC(=O)NC1=NC(=O)OCc1ccccc1
- ring closure, isolated yield ([1]; from [2H]C([2H])([2H])N(CC(=O)OC(C)(C)CCCC=C)C(=NC(=O)OCc1ccccc1)NC(=O)CCC=C, 15-membered ring, Grubbs II): 50%

Compound: [2H]C([2H])([2H])N(C(N)=NC(=O)OCc1ccccc1)N(CC(=O)O)C(=N)NC(=O)CCCCCC=C
- ring closure, isolated yield ([1]; the molecule shown is the open-chain precursor, 17-membered ring, Grubbs II (10 mol%), 2.4 mM): 33%

Compound: [2H]C([2H])([2H])N1CC(=O)OC(C)(C)CC=CCCCCCCCC(=O)N/C1=N/C(=O)OCc1ccccc1
- ring closure, yield of all isomers ([2]; from [2H]C([2H])([2H])N(CC(=O)OC(C)(C)CC=C)/C(=N\C(=O)OCc1ccccc1)NC(=O)CCCCCCCC=C, dichloromethane, 2.0 mM): 79%

Compound: [2H]C([2H])([2H])N1CC(=O)OC(C)C=CCCCCCCCC(=O)N/C1=N/C(=O)OC(C)(C)C (stereo not shown)
- ring closure, yield of all isomers ([2]; from [2H]C([2H])([2H])N(CC(=O)OC(C)C=C)/C(=N\C(=O)OC(C)(C)C)NC(=O)CCCCCCCC=C, DCM, 2.28 mM): 77%

Compound: [2H]C([2H])([2H])N1CC(=O)OC(CC)/C=C/CCCCCCCC(=O)N/C1=N/C(=O)OC(C)(C)C (stereo not shown)
- ring closure, yield of all isomers ([2]; from [2H]C([2H])([2H])N(CC(=O)OC(C=C)CC)/C(=N\C(=O)OC(C)(C)C)NC(=O)CCCCCCCC=C, DCM, 2.82 mM): 86%

Compound: [2H]C([2H])([2H])N1CC(=O)OC2(CC/C=C/CCCCCC(=O)NC1=NC(=O)OCc1ccccc1)CCOC2 (stereo not shown)
- ring closure, yield of all isomers ([2]; from [2H]C([2H])([2H])N(CC(=O)OC1(CCC=C)CCOC1)C(=NC(=O)OCc1ccccc1)NC(=O)CCCCCC=C, dichloromethane, 1.95 mM): 78%

Compound: [2H]C([2H])([2H])N1CC(=O)OC2(CCC=CCCCCCC(=O)N/C1=N/C(=O)OCc1ccccc1)CCC2
- ring closure, yield of all isomers ([2]; from [2H]C([2H])([2H])N(CC(=O)OC1(CCC=C)CCC1)/C(=N\C(=O)OCc1ccccc1)NC(=O)CCCCCC=C, dichloromethane, 2.4 mM): 33%

Compound: [2H]C([2H])([2H])N1CC(=O)OC2(CCC=CCCCCCC(=O)NC1=NC(=O)OCc1ccccc1)CCCC2
- ring closure, yield of all isomers ([2]; from [2H]C([2H])([2H])N(CC(=O)OC1(CCC=C)CCCC1)C(=NC(=O)OCc1ccccc1)NC(=O)CCCCCC=C, dichloromethane, 1.95 mM): 84%

Compound: [2H]C([2H])([2H])N1CC(=O)OCCCC/C=C\CCCCCCCC(=O)N/C1=N/C(=O)OC(C)(C)C
- ring closure, isolated yield ([1]; from [2H]C([2H])([2H])N(CC(=O)OCCCCC=C)C(=NC(=O)OC(C)(C)C)NC(=O)CCCCCCCC=C, 20-membered ring, Grubbs II): 90%

Compound: [2H]C([2H])([2H])N1CC(=O)OCCCCCCCC/C=C/CCCCCCCC(=O)N/C1=N/C(=O)OCc1ccccc1
- ring closure, isolated yield ([1]; from [2H]C([2H])([2H])N(CC(=O)OCCCCCCCCC=C)/C(=N\C(=O)OCc1ccccc1)NC(=O)CCCCCCCC=C, 24-membered ring, Grubbs II (10 mol%), 1.79 mM, 2.0 h): 78%

Compound: [2H]C([2H])([2H])N1CC(=O)OCCCCCCCC/C=C/CCCCCCCC(=O)NC1=NC(=O)OCc1ccccc1
- ring closure, yield of all isomers ([2]; from [2H]C([2H])([2H])N(CC(=O)OCCCCCCCCC=C)C(=NC(=O)OCc1ccccc1)NC(=O)CCCCCCCC=C, dichloromethane, 1.79 mM): 78%

Compound: [2H]C([2H])([2H])N(CC(=O)[O-])C(=N)NC(=O)CCCCCCCCCC.[Na+] [Compound 4]
- Chemical Stability PBS % T0 at 2 hours at 37 °C. [3]: 69%
- Chemical Stability SGF, no enzyme % T0 at 2 hours at 37 °C. [4]: 94%
- crossing of BBB (in words) ([5]; CrT KO mice, IV dosing): did not seem to cross BBB
- AUClast d3-Cr in the brain ([5]; IV 10 mg/kg, CrT KO mouse brain, BQL d3-Cr = 13.7 ng/mL): BQL
- AUClast d3-Crn in the brain ([5]; IV 10 mg/kg, CrT KO mouse brain, BQL d3-Crn = 1.5 ng/mL): BQL
- AUClast prodrug in the brain ([5]; IV 10 mg/kg, CrT KO mouse brain, BQL prodrug = 41.2 ng/mL): BQL
- Chemical Stability SIF, no enzyme % T0 at 2 hours at 37 °C. [6]: 61%

Compound: [2H]C([2H])([2H])N(CC(=O)[O-])C(=N)NC(=O)CCC/C=C\C/C=C\C/C=C\C/C=C\CCCCC.[Na+] [Compound 22]
- half-life at 10 μM [7]: 0.4 h
- half-life [8]: 2.17 h
- half-life [9]: > 3 h
- Chemical Stability PBS % T0 at 2 hours at 37 °C. [3]: 35%
- half-life at 10 μM [10]: 0.15 h
- Chemical Stability SGF, no enzyme % T0 at 2 hours at 37 °C. [4]: 30%
- Chemical Stability SIF, no enzyme % T0 at 2 hours at 37 °C. [6]: 86%

Compound: [2H]C([2H])([2H])N(CC(=O)[O-])C(=N)NC(=O)CCCCC/C=C\CCCCCCCCCC.[Li+] [Compound 24]
- half-life at 10 μM [7]: 1.3 h
- half-life [8]: > 3 h
- half-life [9]: > 3 h
- Chemical Stability PBS % T0 at 2 hours at 37 °C. [3]: 150%
- half-life at 10 μM [10]: 1.37 h
- Chemical Stability SGF, no enzyme % T0 at 2 hours at 37 °C. [4]: 39%
- Chemical Stability SIF, no enzyme % T0 at 2 hours at 37 °C. [6]: 74%

Compound: [2H]C([2H])([2H])N(CC(=O)OCC)C(=N)NC(=O)CCCCCCCCCCCC [Compound 46]
- half-life [8]: < 0.0833 h
- half-life [9]: < 0.0833 h
- Chemical Stability PBS % T0 at 2 hours at 37 °C. [3]: 0%
- Chemical Stability SGF, no enzyme % T0 at 2 hours at 37 °C. [4]: 111%
- Chemical Stability SIF, no enzyme % T0 at 2 hours at 37 °C. [6]: 45%

Compound: (Z)-tert-butyl-((E)-17-ethyl-4-trideuteriomethyl-2,7-dioxo-1-oxa-4,6-diazacycloheptadec-15-en-5-ylidene) carbamate
- ring closure, isolated yield ([1]; 17-membered ring, Grubbs II (20 mol%), 2.82 mM): 86%
